IC50 data for 26 compounds are collected here from patent US20070049593A1 (priority 2004, published 2007).

Counter-ions that a name gives are not always drawn. Like-named read-outs stand apart in the source and are kept apart here.

What is called IC50 is the concentration that gives 50% inhibition.

The target of the assay is T1, HCV polymerase (Hepatitis C virus genotype 1b, UniProt P26663).
T1 construct: a region encoding NS5B (J Virol 1991 March, 65(3), 1105-13, 544 amino acids after deletion of 47 amino acids on the C-terminal); 6xHis (C); made in house; host or cells: Escherichia coli
T1 sequence (P26663 2420-2963): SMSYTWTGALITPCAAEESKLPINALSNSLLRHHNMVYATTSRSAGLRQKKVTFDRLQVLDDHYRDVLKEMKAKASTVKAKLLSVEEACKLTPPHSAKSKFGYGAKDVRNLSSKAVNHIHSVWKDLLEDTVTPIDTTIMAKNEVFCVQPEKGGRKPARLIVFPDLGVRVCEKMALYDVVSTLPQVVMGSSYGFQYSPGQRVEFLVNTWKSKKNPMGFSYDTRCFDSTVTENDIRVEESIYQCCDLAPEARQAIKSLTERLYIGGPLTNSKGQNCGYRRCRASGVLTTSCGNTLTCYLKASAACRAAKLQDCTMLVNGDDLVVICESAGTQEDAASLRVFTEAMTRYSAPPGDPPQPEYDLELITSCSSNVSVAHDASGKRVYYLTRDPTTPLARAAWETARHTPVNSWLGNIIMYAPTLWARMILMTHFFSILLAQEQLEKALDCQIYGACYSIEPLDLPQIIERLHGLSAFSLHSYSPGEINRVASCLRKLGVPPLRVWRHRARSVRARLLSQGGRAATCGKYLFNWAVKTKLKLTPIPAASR
Briefly: biochemical. On the set-up: species or system HCV BK strain. The method, boiled down:
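His-tagged NS5B (BK strain, 47-aa C-terminal deletion, E. coli-expressed) at 0.5 μg/ml copied 5 μg/ml run-off RNA bearing the HCV 3′ UTR with 2 μM UTP plus [3H]UTP, 50 μM ATP/GTP, in pH 7.5 Tris with 5 mM MgCl2, 25 °C, 90 min. TCA-precipitated RNA was counted and IC50 calculated.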

`O=C(O)c1ccc2c(C3CCCCC3)c3n(c2c1)CCN(CC(=O)N1CCCCCCCC1)c1ccccc1-3` [Example 1-132, 5-[2-(azonan-1-yl)-2-oxoethyl]-13-cyclohexyl-6,7-dihydro-5H-benzo[5,6][1,4]diazepino[7,1-a]indole-10-carboxylic acid] came in with an IC50 of less than 100 nM. Take `CCN1CCC(CN2CCn3c(c(C4CCCCC4)c4ccc(C(=O)O)cc43)-c3ccccc32)CC1` [Example 1-133, 13-cyclohexyl-5-(1-ethylpiperidin-4-ylmethyl)-6,7-dihydro-5H-benzo[5,6][1,4]diazepino[7,1-a]indole-10-carboxylic acid dihydrochloride]: the IC50 (read-out: HCV polymerase inhibitory activity IC50, 25° C., 90 min, [5,6-3H]UTP incorporation into RNA) was less than 100 nM.

For the compound `O=C(O)c1ccc2c(C3CCCCC3)c3n(c2c1)CCN(Cc1ccncc1)c1ccccc1-3` [Example 1-134, 13-cyclohexyl-5-(pyridin-4-ylmethyl)-6,7-dihydro-5H-benzo[5,6][1,4]diazepino[7,1-a]indole-10-carboxylic acid dihydrochloride], the IC50 was less than 100 nM. On the same count and under the same terms, then `O=C(O)c1ccc2c(C3CCCCC3)c3n(c2c1)CCN(Cc1cccnc1)c1ccccc1-3` [Example 1-135, 13-cyclohexyl-5-(pyridin-3-ylmethyl)-6,7-dihydro-5H-benzo[5,6][1,4]diazepino[7,1-a]indole-10-carboxylic acid dihydrochloride], with less than 100 nM; and `O=C(O)c1ccc2c(C3CCCCC3)c3n(c2c1)CCN(CC(=O)N1CC=CCC1)c1ccccc1-3` [Example 1-136, 13-cyclohexyl-5-[2-(3,6-dihydro-2H-pyridin-1-yl)-2-oxoethyl]-6,7-dihydro-5H-benzo[5,6][1,4]diazepino[7,1-a]indole-10-carboxylic acid], with less than 100 nM. The compound `CC1CCCCN1C(=O)CN1CCn2c(c(C3CCCCC3)c3ccc(C(=O)O)cc32)-c2ccccc21` (centres unmarked) [Example 1-137, 13-cyclohexyl-5-[2-(2-methylpiperidin-1-yl)-2-oxoethyl]-6,7-dihydro-5H-benzo[5,6][1,4]diazepino[7,1-a]indole-10-carboxylic acid] displayed an IC50 of less than 100 nM. On the same count and under the same terms, under `O=C(O)c1ccc2c(C3CCCCC3)c3n(c2c1)CCN(CC(=O)N1CCc2ccccc2C1)c1ccccc1-3` [Example 1-138, 13-cyclohexyl-5-[2-(3,4-dihydro-1H-isoquinolin-2-yl)-2-oxoethyl]-6,7-dihydro-5H-benzo[5,6][1,4]diazepino[7,1-a]indole-10-carboxylic acid monohydrochloride] stands less than 100 nM; under `O=C(O)c1ccc2c(C3CCCCC3)c3n(c2c1)CCN(CC(=O)N1CCCC2CCCCC21)c1ccccc1-3` (centres unmarked) [Example 1-139, 13-cyclohexyl-5-[2-(octahydroquinolin-1-yl)-2-oxoethyl]-6,7-dihydro-5H-benzo[5,6][1,4]diazepino[7,1-a]indole-10-carboxylic acid monohydrochloride], less than 100 nM. `O=C(O)c1ccc2c(C3CCCCC3)c3n(c2c1)CCN(CC(=O)N1Cc2ccccc2C1)c1ccccc1-3` [Example 1-140, 13-cyclohexyl-5-[2-(1,3-dihydroisoindol-2-yl)-2-oxoethyl]-6,7-dihydro-5H-benzo[5,6][1,4]diazepino[7,1-a]indole-10-carboxylic acid monohydrochloride]: the IC50 is less than 100 nM. As to `O=C(O)c1ccc2c(C3CCCCC3)c3n(c2c1)CCN(CC(=O)N1CCC2CCCCC2C1)c1ccccc1-3` (centres unmarked) [Example 1-141, 13-cyclohexyl-5-[2-(octahydroisoquinolin-2-yl)-2-oxoethyl]-6,7-dihydro-5H-benzo[5,6][1,4]diazepino[7,1-a]indole-10-carboxylic acid monohydrochloride], the IC50 is less than 100 nM. On to `O=C(O)c1ccc2c(C3CCCCC3)c3n(c2c1)CCN(CCN1CCc2ccccc2C1)c1ccccc1-3` [Example 1-142, 13-cyclohexyl-5-[2-(3,4-dihydro-1H-isoquinolin-2-yl)ethyl]-6,7-dihydro-5H-benzo[5,6][1,4]diazepino[7,1-a]indole-10-carboxylic acid dihydrochloride], for which the IC50 was less than 100 nM. The same measure, in the same setting: under `CC1CCCN(CCN2CCn3c(c(C4CCCCC4)c4ccc(C(=O)O)cc43)-c3ccccc32)C1` (centres unmarked) [Example 1-143, 13-cyclohexyl-5-[2-(3-methylpiperidin-1-yl)ethyl]-6,7-dihydro-5H-benzo[5,6][1,4]diazepino[7,1-a]indole-10-carboxylic acid dihydrochloride] stands less than 100 nM; under `O=C(O)c1ccc2c(C3CCCCC3)c3n(c2c1)CCN(CCN1CCCC2CCCCC21)c1ccccc1-3` (centres unmarked) [Example 1-144, 13-cyclohexyl-5-[2-(octahydroquinolin-1-yl)ethyl]-6,7-dihydro-5H-benzo[5,6][1,4]diazepino[7,1-a]indole-10-carboxylic acid dihydrochloride], less than 100 nM. Still for that read-out and setting: under `O=C(O)c1ccc2c(C3CCCCC3)c3n(c2c1)CCN(CCN1Cc2ccccc2C1)c1ccccc1-3` [Example 1-145, 13-cyclohexyl-5-[2-(1,3-dihydroisoindol-2-yl)ethyl]-6,7-dihydro-5H-benzo[5,6][1,4]diazepino[7,1-a]indole-10-carboxylic acid dihydrochloride] stands less than 100 nM; under `O=C(O)c1ccc2c(C3CCCCC3)c3n(c2c1)CCN(CCN1CCC2CCCCC2C1)c1ccccc1-3` (centres unmarked) [Example 1-146, 13-cyclohexyl-5-[2-(octahydroisoquinolin-2-yl)ethyl]-6,7-dihydro-5H-benzo[5,6][1,4]diazepino[7,1-a]indole-10-carboxylic acid dihydrochloride], less than 100 nM; under `CN(C)CCCN1CCn2c(c(C3CCCCC3)c3ccc(C(=O)O)cc32)-c2ccccc21` [Example 1-148, 13-cyclohexyl-5-(3-dimethylaminopropyl)-6,7-dihydro-5H-benzo[5,6][1,4]diazepino[7,1-a]indole-10-carboxylic acid dihydrochloride], less than 100 nM. With `O=C(O)c1ccc2c(C3CCCCC3)c3n(c2c1)CCN(CCN1CCCCC1)c1c(F)cccc1-3` [Example 1-149, 13-cyclohexyl-4-fluoro-5-[2-(piperidin-1-yl)ethyl]-6,7-dihydro-5H-benzo[5,6][1,4]diazepino[7,1-a]indole-10-carboxylic acid dihydrochloride], the IC50 is less than 100 nM.

As for `CC(C)C1CCN(CCN2CCn3c(c(C4CCCCC4)c4ccc(C(=O)O)cc43)-c3ccccc32)CC1` [Example 1-150, 13-cyclohexyl-5-[2-(4-isopropylpiperidin-1-yl)ethyl]-6,7-dihydro-5H-benzo[5,6][1,4]diazepino[7,1-a]indole-10-carboxylic acid dihydrochloride], the half-inhibitory concentration (IC50) is less than 100 nM. For `COC1CCCN(CCN2CCn3c(c(C4CCCCC4)c4ccc(C(=O)O)cc43)-c3ccccc32)C1` (centres unmarked) [Example 1-151, 13-cyclohexyl-5-[2-(3-methoxypiperidin-1-yl)ethyl]-6,7-dihydro-5H-benzo[5,6][1,4]diazepino[7,1-a]indole-10-carboxylic acid dihydrochloride], the half-maximal inhibitory concentration (IC50) was less than 100 nM. `CC(C)(C)OC(=O)N1CCCC(CN2CCn3c(c(C4CCCCC4)c4ccc(C(=O)O)cc43)-c3ccccc32)C1` (centres unmarked) [Example 1-152, 5-(1-tert-butoxycarbonylpiperidin-3-ylmethyl)-13-cyclohexyl-6,7-dihydro-5H-benzo[5,6][1,4]diazepino[7,1-a]indole-10-carboxylic acid] registered an IC50 of less than 100 nM. As to `CCN1CCCC(CN2CCn3c(c(C4CCCCC4)c4ccc(C(=O)O)cc43)-c3ccccc32)C1` (centres unmarked) [Example 1-153, 13-cyclohexyl-5-(1-ethylpiperidin-3-ylmethyl)-6,7-dihydro-5H-benzo[5,6][1,4]diazepino[7,1-a]indole-10-carboxylic acid dihydrochloride], the IC50 is less than 100 nM. For the compound `O=C(O)c1ccc2c(C3CCCCC3)c3n(c2c1)CCN(CCN1CCCCCCC1)c1ccccc1-3` [Example 1-154, 5-[2-(azocan-1-yl)ethyl]-13-cyclohexyl-6,7-dihydro-5H-benzo[5,6][1,4]diazepino[7,1-a]indole-10-carboxylic acid], the IC50 is less than 100 nM. On the same count and under the same terms, then `O=C(O)c1ccc2c(C3CCCCC3)c3n(c2c1)CCN(CCN1CCCCCCCC1)c1ccccc1-3` [Example 1-155, 5-[2-(azonan-1-yl)ethyl]-13-cyclohexyl-6,7-dihydro-5H-benzo[5,6][1,4]diazepino[7,1-a]indole-10-carboxylic acid], with less than 100 nM; and `CC1CCCCN1CCN1CCn2c(c(C3CCCCC3)c3ccc(C(=O)O)cc32)-c2ccccc21` (centres unmarked) [Example 1-156, 13-cyclohexyl-5-[2-(2-methylpiperidin-1-yl)ethyl]-6,7-dihydro-5H-benzo[5,6][1,4]diazepino[7,1-a]indole-10-carboxylic acid], with less than 100 nM; and `O=C(O)c1ccc2c(C3CCCCC3)c3n(c2c1)CCN(CCC1CCN(C2CCCC2)CC1)c1ccccc1-3` [Example 1-157, 13-cyclohexyl-5-[2-(1-cyclopentylpiperidin-4-yl)ethyl]-6,7-dihydro-5H-benzo[5,6][1,4]diazepino[7,1-a]indole-10-carboxylic acid dihydrochloride], with less than 100 nM.

For `O=C(O)c1ccc2c(C3CCCCC3)c3n(c2c1)CCN(CC(=O)N1CCC(C(F)(F)F)CC1)c1ccccc1-3` [Example 1-158, 13-cyclohexyl-5-[2-oxo-2-(4-trifluoromethylpiperidin-1-yl)ethyl]-6,7-dihydro-5H-benzo[5,6][1,4]diazepino[7,1-a]indole-10-carboxylic acid monohydrochloride], the IC50 is less than 100 nM.
